Results taken from patent publication US8980926B2, “2-aminoindole compounds and methods for the treatment of malaria” (Genzyme Corporation, priority 2009, dated 2015).

Test system: P. falciparum strain 3D7
Assay: In vitro potency against P. falciparum strain 3D7 (SYBR green/DAPI)
Type: cell-based
Conditions: Plasmodium falciparum, reductions in parasitemia, read-out: IC50 values

| IC50 | Structure (SMILES) |
| --- | --- |
| 100 to 500 nM | CCCCC1(O)C(N)=Nc2ccc(Cl)cc21 (stereo not shown) [Compound 26] |
| 1 to 100 nM | CCOc1ccc(F)cc1C1(O)C(N)=Nc2ccc(C)cc21 (stereo not shown) [Compound 249] |
| 1000 to 5000 nM | NC1=Nc2ccc(Cl)cc2C1(O)c1ccccn1 (stereo not shown) [Compound 49] |
| 100 to 500 nM | NC1=Nc2ccc(Cl)cc2C1(O)c1ccccc1N1CCCCC1 (stereo not shown) [Compound 130] |
| 1 to 100 nM | Cn1ccc2cccc(C3(O)C(N)=Nc4ccc(Cl)cc43)c21 (stereo not shown) [Compound 111] |
| 100 to 500 nM | NC1=Nc2ccc(Cl)cc2C1(O)C1CCC1 (stereo not shown) [Compound 197] |
| 5000 to 15000 nM | NC1=Nc2ccc(Cl)cc2C1(O)c1ccc(C(=O)O)cc1 (stereo not shown) [Compound 102] |
| 100 to 500 nM | NC1=Nc2ccc(Cl)cc2C1(O)c1cccc2c1oc1ccccc12 (stereo not shown) [Compound 69] |
| 1 to 100 nM | NC1=Nc2ccc(Cl)cc2C1(O)c1ccccc1N1CCOCC1 (stereo not shown) [Compound 119] |
| 1 to 100 nM | NC1=Nc2ccc(Cl)cc2C1(O)c1cc(F)ccc1OC1CCC1 (stereo not shown) [Compound 164] |
| 1 to 100 nM | NC1=Nc2ccc(Cl)cc2C1(O)c1ccccc1C1CC1 (stereo not shown) [Compound 205] |
| 1000 to 5000 nM | NC1=Nc2ccc(Cl)cc2C1(O)c1ccncc1 (stereo not shown) [Compound 79] |
| 500 to 1000 nM | NC1=Nc2cc(Cl)c(Cl)cc2C1(O)c1ccccc1 (stereo not shown) [Compound 51] |
| 1 to 100 nM | CCOc1cnc(Cl)cc1C1(O)C(N)=Nc2ccc(Cl)cc21 (stereo not shown) [Compound 224] |
| 1 to 100 nM | CCOc1ccc(OC)cc1C1(O)C(N)=Nc2ccccc21 (stereo not shown) [Compound 191] |
| 100 to 500 nM | CN(C)c1cccc(C2(O)C(N)=Nc3ccc(Cl)cc32)c1 (stereo not shown) [Compound 21] |
| 100 to 500 nM | CCOc1ccc(C2(O)C(N)=Nc3ccc(Cl)cc32)c(Cl)c1 (stereo not shown) [Compound 260] |
| 1 to 100 nM | CCOc1cc(F)c(F)cc1C1(O)C(N)=Nc2ccc(C)cc21 (stereo not shown) [Compound 255] |
| 1 to 100 nM | Cc1csc2c(C3(O)C(N)=Nc4ccc(Cl)cc43)cccc12 (stereo not shown) [Compound 136] |
| 1 to 100 nM | COc1cc(C2(O)C(N)=Nc3ccc(Cl)cc32)c2ccccc2n1 (stereo not shown) [Compound 263] |
| 500 to 1000 nM | CN1CCN(c2ccccc2C2(O)C(N)=Nc3ccc(Cl)cc32)CC1 (stereo not shown) [Compound 149] |
| 100 to 500 nM | NC1=Nc2ccccc2C1(O)c1ccc2ccccc2c1 (stereo not shown) [Compound 25] |
| 1 to 100 nM | COc1ccc2c(c1)C(O)(c1cc(F)cc3ccccc13)C(N)=N2 (stereo not shown) [Compound 269] |
| 100 to 500 nM | NC1=Nc2ccc(Cl)cc2C1(O)C1CCCCC1 (stereo not shown) [Compound 116] |
| 1 to 100 nM | NC1=Nc2ccc(Cl)cc2C1(O)c1ccccc1N1CCCCCC1 (stereo not shown) [Compound 162] |

| IC50 | Structure (SMILES) |
| --- | --- |
| 1 to 100 nM | CC(C)Oc1ccc(F)c(C2(O)C(N)=Nc3ccc(Cl)cc32)c1 (stereo not shown) [Compound 208] |
| 100 to 500 nM | NC1=Nc2ccc(Br)cc2C1(O)Cc1ccccc1 (stereo not shown) [Compound 124] |
| 1 to 100 nM | COc1ccc(Cl)cc1C1(O)C(N)=Nc2ccc(Cl)cc21 (stereo not shown) [Compound 140] |
| 100 to 500 nM | NC1=Nc2cc3c(cc2C1(O)c1ccccc1)OCO3 (stereo not shown) [Compound 57] |
| 100 to 500 nM | COc1ncccc1C1(O)C(N)=Nc2ccc(Cl)cc21 (stereo not shown) [Compound 239] |
| 1 to 100 nM | CCOc1ccc(OC)cc1C1(O)C(N)=Nc2ccc(Cl)cc21 (stereo not shown) [Compound 147] |
| 1 to 100 nM | CCOc1cc(F)c(F)cc1C1(O)C(N)=Nc2ccc(Cl)cc21 (stereo not shown) [Compound 250] |
| 100 to 500 nM | CC(C)Oc1ccc2c(c1)C(O)(c1ccccc1)C(N)=N2 (stereo not shown) [Compound 76] |
| 1000 to 5000 nM | NC1=Nc2ccc(OC(F)(F)F)cc2C1(O)c1ccccc1 (stereo not shown) [Compound 47] |
| 1 to 100 nM | CC(C)(C)Sc1ccccc1C1(O)C(N)=Nc2ccc(Cl)cc21 (stereo not shown) [Compound 193] |
| 1 to 100 nM | CC(C)Oc1cc(F)ccc1C1(O)C(N)=Nc2ccc(Cl)cc21 (stereo not shown) [Compound 215] |
| 1000 to 5000 nM | CC1(O)C(N)=Nc2ccccc21 (stereo not shown) [Compound 9] |
| 1 to 100 nM | CC(C)c1ccccc1CC1(O)C(N)=Nc2ccc(Cl)cc21 (stereo not shown) [Compound 168] |
| 100 to 500 nM | CC(C)CC1(O)C(N)=Nc2ccc(Cl)cc21 (stereo not shown) [Compound 54] |
| 1 to 100 nM | NC1=Nc2ccc(Cl)cc2C1(O)c1ccccc1N1CCSCC1 (stereo not shown) [Compound 214] |
| 1 to 100 nM | NC1=Nc2ccc(Cl)cc2C1(O)CC1CCCCC1 (stereo not shown) [Compound 43] |
| 1 to 100 nM | CCOc1ncc(Cl)cc1C1(O)C(N)=Nc2ccc(Cl)cc21 (stereo not shown) [Compound 242] |
| 100 to 500 nM | Cc1cc(C)cc(C2(O)C(N)=Nc3ccc(Cl)cc32)c1 (stereo not shown) [Compound 112] |
| 100 to 500 nM | NC1=Nc2ccccc2C1(O)CC12CC3CC(CC(C3)C1)C2 (stereo not shown) [Compound 229] |
| 1 to 100 nM | NC1=Nc2ccc(Cl)cc2C1(O)c1cccc2ccsc12 (stereo not shown) [Compound 82] |
| 1 to 100 nM | NC1=Nc2ccc(Cl)cc2C1(O)c1cc(F)ccc1N1CCOCC1 (stereo not shown) [Compound 178] |
| 5000 to 15000 nM | N#Cc1ccccc1C1(O)C(N)=Nc2ccc(Cl)cc21 (stereo not shown) [Compound 109] |
| 1 to 100 nM | CCOc1ccccc1C1(O)C(N)=Nc2ccc(Cl)cc21 (stereo not shown) [Compound 141] |
| 100 to 500 nM | NC1=Nc2ccc(Cl)c(Cl)c2C1(O)c1ccccc1 (stereo not shown) [Compound 40] |
| 1 to 100 nM | CCOc1cnc(OC)c(C2(O)C(N)=Nc3ccc(Cl)cc32)c1 (stereo not shown) [Compound 211] |

| IC50 | Structure (SMILES) |
| --- | --- |
| 1000 to 5000 nM | NC1=Nc2c(ccc(Cl)c2Cl)C1(O)c1ccccc1 (stereo not shown) [Compound 46] |
| 100 to 500 nM | NC1=Nc2ccc(Cl)cc2C1(O)c1cncc2ccccc12 (stereo not shown) [Compound 107] |
| 1 to 100 nM | CCN(CC)c1ccccc1C1(O)C(N)=Nc2ccc(Cl)cc21 (stereo not shown) [Compound 234] |
| 1 to 100 nM | CSc1ccccc1C1(O)C(N)=Nc2ccc(Cl)cc21 (stereo not shown) [Compound 121] |
| 100 to 500 nM | NC1=Nc2cccc(Cl)c2C1(O)c1ccccc1 (stereo not shown) [Compound 33] |
| 1 to 100 nM | COc1cc(F)c(C2(O)C(N)=Nc3ccc(Cl)cc32)cc1OC (stereo not shown) [Compound 217] |
| 1 to 100 nM | CSc1ccc(F)cc1C1(O)C(N)=Nc2ccc(Cl)cc21 (stereo not shown) [Compound 203] |
| 500 to 1000 nM | COc1ccc(C2(O)C(N)=Nc3ccc(Cl)cc32)cc1 (stereo not shown) [Compound 72] |
| 1 to 100 nM | CCOc1ccc(Cl)cc1C1(O)C(N)=Nc2ccc(Cl)cc21 (stereo not shown) [Compound 155] |
| 1 to 100 nM | COc1ccc2c(c1)C(O)(c1cccc3ccsc13)C(N)=N2 (stereo not shown) [Compound 159] |
| 100 to 500 nM | Cc1ccccc1C1(O)C(N)=Nc2ccccc21 (stereo not shown) [Compound 30] |
| 100 to 500 nM | NC1=Nc2ccc(Cl)cc2C1(O)c1cccc(F)c1F (stereo not shown) [Compound 95] |
| 1 to 100 nM | CN(C)c1ccc(Cl)cc1C1(O)C(N)=Nc2ccc(Cl)cc21 (stereo not shown) [Compound 174] |
| 100 to 500 nM | NC1=Nc2ccc(CCCC3CCCCC3)cc2C1(O)c1ccccc1 (stereo not shown) [Compound 93] |
| 100 to 500 nM | NC1=Nc2ccccc2C1(O)c1cc(F)cc2ccccc12 (stereo not shown) [Compound 264] |
| 100 to 500 nM | NC1=Nc2ccc(F)cc2C1(O)c1ccccc1 (stereo not shown) [Compound 36] |
| 5000 to 15000 nM | COc1cc(C2(O)C(N)=Nc3ccc(Cl)cc32)c2c(ccn2C)c1 (stereo not shown) [Compound 44] |
| 100 to 500 nM | NC1=Nc2cc3c(cc2C1(O)c1ccccc1)OCCO3 (stereo not shown) [Compound 77] |
| 100 to 500 nM | COc1ccc(CCc2ccc3c(c2)C(O)(c2ccccc2)C(N)=N3)cc1 (stereo not shown) [Compound 106] |
| 1 to 100 nM | NC1=Nc2ccc(Br)cc2C1(O)c1cccc2ccsc12 (stereo not shown) [Compound 166] |
| 100 to 500 nM | COc1ccc(C#Cc2ccc3c(c2)C(O)(c2ccccc2)C(N)=N3)cc1 (stereo not shown) [Compound 104] |
| 1 to 100 nM | NC1=Nc2ccc(Br)cc2C1(O)c1ccccc1 (stereo not shown) [Compound 41] |
| 1 to 100 nM | Cc1ccc2c(c1)C(O)(c1ccccc1C1CC1)C(N)=N2 (stereo not shown) [Compound 256] |
| 1 to 100 nM | COc1ccc(C2(O)C(N)=Nc3ccc(Cl)cc32)c2ccccc12 (stereo not shown) [Compound 78] |
| 1 to 100 nM | CN(C)c1ccccc1C1(O)C(N)=Nc2ccc(Cl)cc21 (stereo not shown) [Compound 80] |

| IC50 | Structure (SMILES) |
| --- | --- |
| 100 to 500 nM | Cc1ccc2c(c1)C(O)(C(C)C)C(N)=N2 (stereo not shown) [Compound 231] |
| 1 to 100 nM | COc1ccc(OC2CCC2)c(C2(O)C(N)=Nc3ccccc32)c1 (stereo not shown) [Compound 195] |
| 1 to 100 nM | Cc1ccc2c(c1)C(O)(c1cc(Cl)ccc1C1CC1)C(N)=N2 (stereo not shown) [Compound 262] |
| 100 to 500 nM | NC1=Nc2ccc(Cl)cc2C1(O)c1cccc2cnccc12 (stereo not shown) [Compound 81] |
| 1 to 100 nM | Cc1ccc2c(c1)C(O)(c1cc(Cl)cnc1N(C)C)C(N)=N2 (stereo not shown) [Compound 270] |
| 100 to 500 nM | NC1=Nc2ccc(Cl)cc2C1(O)c1ccccc1-c1ccccc1 (stereo not shown) [Compound 129] |
| 1 to 100 nM | COc1ccc2c(c1)C(O)(Cc1ccccc1)C(N)=N2 (stereo not shown) [Compound 133] |
| 100 to 500 nM | COc1cccc(C2(O)C(N)=Nc3ccc(Cl)cc32)c1 (stereo not shown) [Compound 23] |
| 1 to 100 nM | CCSc1ccccc1C1(O)C(N)=Nc2ccc(Cl)cc21 (stereo not shown) [Compound 163] |
| 1 to 100 nM | NC1=Nc2ccc(Cl)cc2C1(O)c1cc(F)ccc1SC1CCC1 (stereo not shown) [Compound 184] |
| 1 to 100 nM | COc1ccc(F)cc1C1(O)C(N)=Nc2ccc(Cl)cc21 (stereo not shown) [Compound 145] |
| 1 to 100 nM | CC(C)(C)Oc1ccc(F)cc1C1(O)C(N)=Nc2ccc(Cl)cc21 (stereo not shown) [Compound 194] |
| 1 to 100 nM | COc1ccccc1C1(O)C(N)=Nc2ccc(Br)cc21 (stereo not shown) [Compound 123] |
| 1 to 100 nM | NC1=Nc2ccc(Cl)cc2C1(O)c1ccccc1SC1CCC1 (stereo not shown) [Compound 187] |
| 1 to 100 nM | COc1ccc(C2CC2)c(C2(O)C(N)=Nc3ccc(Cl)cc32)c1 (stereo not shown) [Compound 212] |
| 100 to 500 nM | NC1=Nc2ccc(Cl)cc2C1(O)c1cc(F)ccc1F (stereo not shown) [Compound 198] |
| 100 to 500 nM | Cn1ccc2cc(F)cc(C3(O)C(N)=Nc4ccc(Cl)cc43)c21 (stereo not shown) [Compound 272] |
| 5000 to 15000 nM | CS(=O)(=O)c1ccc2c(c1)C(O)(c1ccccc1)C(N)=N2 (stereo not shown) [Compound 101] |
| 1 to 100 nM | CN(C)c1ccc(F)cc1C1(O)C(N)=Nc2ccc(Cl)cc21 (stereo not shown) [Compound 192] |
| 100 to 500 nM | Cc1ccc(CC2(O)C(N)=Nc3ccc(Cl)cc32)o1 (stereo not shown) [Compound 173] |
| 1 to 100 nM | NC1=Nc2ccc(Cl)cc2C1(O)Cc1nc2ccccc2s1 (stereo not shown) [Compound 139] |
| 1 to 100 nM | NC1=Nc2ccc(Cl)cc2C1(O)c1ccccc1OC1CCC1 (stereo not shown) [Compound 151] |
| 1 to 100 nM | Cc1ccc2c(c1)C(O)(c1cc(Cl)cc3ccccc13)C(N)=N2 (stereo not shown) [Compound 273] |
| 100 to 500 nM | CC(C)(C)c1ccc(C2(O)C(N)=Nc3ccc(Cl)cc32)cc1 (stereo not shown) [Compound 18] |
| 100 to 500 nM | NC1=Nc2ccc(Cl)cc2C1(O)c1nc2ccccc2s1 (stereo not shown) [Compound 137] |
